Measurements taken from article PMC6828666, “Discovery of holoenzyme-disrupting chemicals as substrate-selective CK2 inhibitors” (Scientific Reports, 2019).

What was measured:
CK2α/CK2β interaction = CK2α/CK2β interaction (Homo sapiens, UniProt P68400); assay: In vitro CK2α/CK2β interaction assay ([35S]methionine-labeled CK2α, plate-bound MBP-CK2β); assay type: binding
Procedure: The CK2α/CK2β interaction assay involved competition between plate-bound MBP-CK2β and the selected compounds for binding to soluble [^35S]methionine-labeled CK2α (10^5 cpm). The assays were performed in reacti-Bind streptavidin-coated high-binding-capacity 96-well plates (Pierce) in which each well was coated with 250 ng of biotinylated MBP-CK2β in 50 mM Tris/HCl, pH 7.2, and 0.4 M NaCl buffer. The compounds and [^35S]methionine-labeled CK2α were added in each well in the same buffer, incubated for 1 h at room temperature and triple-washed, after which the radioactivity of each well was determined using a scintillation counter. Positive control (100% competition) was determined with a 10-fold molar excess of untagged CK2α, and negative control (0% competition) was performed in the absence of competitor[35].

CK2α = CK2α (Homo sapiens, UniProt P68400); assay: STD-NMR competition with AMPPNP; assay type: binding
CK2α, sequence (P68400 whole entry): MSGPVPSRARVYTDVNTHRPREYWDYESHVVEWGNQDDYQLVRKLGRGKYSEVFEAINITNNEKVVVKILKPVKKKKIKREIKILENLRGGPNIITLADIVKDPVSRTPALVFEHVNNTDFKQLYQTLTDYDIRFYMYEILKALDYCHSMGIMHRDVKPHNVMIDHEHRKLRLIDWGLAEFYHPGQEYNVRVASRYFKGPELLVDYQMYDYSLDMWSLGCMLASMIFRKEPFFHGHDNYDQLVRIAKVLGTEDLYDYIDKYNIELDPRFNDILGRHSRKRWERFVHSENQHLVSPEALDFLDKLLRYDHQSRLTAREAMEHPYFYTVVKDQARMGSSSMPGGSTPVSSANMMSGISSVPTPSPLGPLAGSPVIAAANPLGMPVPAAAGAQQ
Procedure: (§1) Standard 1D, STD, and WaterLOGSY NMR spectra were acquired at 20 °C with a Bruker 600 MHz NMR spectrometer, equipped with a Z-gradient cryoprobe. WaterLOGSY mixing time was 1.5 s. Both STD and WaterLOGSY spectra were recorded for each sample. WaterLOGSY spectra in the absence of protein receptor were recorded with 300 µM compound to assess the compound solubility. All the NMR experiments were performed at 293 K with excitation sculpting to suppress peaks from water. 1D and STD experiments were performed using identical experimental conditions (spin lock, interscan delays), and parameters for the STD experiments (saturation frequency and saturation time) were identical for all samples. […] NMR tubes contained 2 μM CK2 with 300 μM of 4.
Fig. S8. NMR-based investigation of the binding of compound 4 to CK2α. (a) NMR-STD epitope mapping observed for compound 4. […] Both compounds bind simultaneously to CK2α.

[1] = Solubility in the protein buffer (WaterLOGSY NMR); assay type: physicochemical; details: relative to the other compounds
Procedure: as §1

[2] = test system: CK2β-depleted MCF10A cells (ΔCK2β); assay: Cell growth inhibition in CK2β-depleted cells (IncuCyte); assay type: cell-based, human; details: 50 μM; ΔCK2β vs WT MCF10A
Procedure: Cells grown on 96-well flat-bottomed plates (Corning Falcon) were tracked using an Essen IncuCyte Zoom live-cell microscopy instrument, an automated live cell imager with high-throughput capabilities and built-in data analysis. Experiments were conducted at 37 °C and 5% CO2. The software incorporated into the IncuCyte Zoom was used to analyze the images.
MCF10A and MDA-MB231 cells were seeded into 96-well plates at a density (1 × 10^4 and 2 × 10^4 cells/well, respectively) and allowed to attach overnight. Bright field images were captured every 3 h for the duration of the experiment. The detection software was calibrated specifically for MCF10A and MDA-MB231 to ensure accurate distinction of cells from empty space. Cell proliferation data were obtained by the cell confluence increment in each of the treatments and expressed as percentage relative to that of control cells.
Fig. S9. […] (a) MCF10A cells were incubated with increasing concentrations of 6 for 24 h. (b) Inset: western blot analysis of CK2 subunits in parental MCF10A cells (WT) or CK2β knockdown MCF10A cells (∆CK2β). Uncropped blots are shown in Supplementary Fig. S16. MCF10A WT (r,p) or MCF10A ∆CK2β (○,●) were incubated with DMSO (r,○) or 50 μM 6 (p,●) for the indicated time. Cell growth was monitored using an Essen IncuCyte Zoom live-cell microscopy incubator. Images were captured every 15 min for the duration of the experiment. […]

CK2α/CK2β interaction, sequence (P68400 whole entry): as above

For `COc1[nH]c2ccc(F)cc2c1C(=O)OCC1CCN(CCNS(C)(=O)=O)CC1` [Compound 1], the IC50 (CK2α/CK2β interaction) was roughly 80 µM and the “reduction of bound radioactive CK2α” value (CK2α/CK2β interaction; single dose 300 μM) was “about 75%”.
With `O=C(OCC1CCN(CCNS(=O)(=O)c2ccccc2)CC1)c1c[nH]c2ccccc12` [Compound 4, (1-(2-(Phenylsulfonamido)ethyl)piperidin-4-yl)methyl 1H-indole-3-carboxylate] the “displacement of AMPPNP upon compound binding” value (CK2α) was “not displaced” and the “solubility in the protein buffer” value [1] was “highest solubility”.
For `COc1[nH]c2ccc(F)cc2c1C(=O)OCC1CCN(CCNS(=O)(=O)c2ccccc2)CC1.Cl` [Compound 6], the “growth inhibition in CK2β-depleted cells compared with WT cells” value [2] was “twice more pronounced”.
